# How the values were obtained:
# [1] = Water solubility (selection for parenteral administration); type: physicochemical
# M-Hela = assay: Cytotoxicity assay (Cytell Cell Imaging, DAPI/propidium iodide), cancer cell line; type: cell-based; conditions: Homo sapiens, M-HeLa, read-out: IC50 Cancer Cell Line M-Hela
# P388 murine leukemia = assay: In vivo anti-tumor activity, i.p. implanted leukemia; design: species or system BDF1 hybrid male mice; conditions: for ILS / MST ± SD / antitumor (anti-leukemic) activity, in words: days 1, 5, 9; for ILS / MST ± SD: P388; for Survival: day 60; for Survivors/Total: survivors on day 60; for antitumor (anti-leukemic) activity, in words: P388, dose range 18–83 mg/kg/day i.p.
# Procedure: Animals. In vivo experiments were performed using the BDF1 hybrid male mice of 22–24 g weight. The experimental animals were caged in a standard vivarium in 12 h light conditions with free access to food and water. All manipulations with the animals were performed in accordance with the solutions of the Commission on Bioethics of the Institute of Problems of Chemical Physics, Russian Academy of Sciences (IPCP RAS).
# Anti-tumor activity. The tumors were transplanted intraperitoneally (i.p.) in accordance with a standard procedure inoculum: 10^6 tumor cells in isotonic solution of NaCl, V = 0.2 cm^3 (leukemia P388). Original compounds were injected intraperitoneally as aqueous solution. Doses from 18 to 83 mg/kg/day and the mode of administration on days 1, 5, and 9 after transplantation were used. In each experiment, a single group of tumor-bearing animals not injected with the compounds served as the control group. Each group consisted of six mice. The animals were observed daily for survival for a minimum of 60 days. The efficacy of the therapy against leukemia (defined as increase in lifespan—ILS) was assessed as the percentage of the median survival time (MST) of the treated group (t) to that of the control group (c): ILS(%) = (MSTt/MSTc) × 100.
# Statistics. The experiments were carried out in triplicate. The data are presented in the form X ± SD (mean ± standard deviation). The significance of the differences between the groups was assessed using Student’s t-test. Values of p < 0.05 were considered statistically significant. The data were processed statistically using GraphPad Prism.
# Chang liver cell line = assay: Cytotoxicity assay (Cytell Cell Imaging), normal cell line; type: cell-based; conditions: Homo sapiens, read-out: IC50 Normal Cell Line Chang Liver
# [2] = tested on: early apoptosis markers (Caspase-8, Caspase-9) in M-Hela cell lysates; assay: Multiplex analysis of early apoptosis markers (MILLIPLEX MAP 7-plex, Luminex); type: cell-based, human; conditions: 24 h, IC50 concentration of 14.7 µM
# Procedure: Multiplex analysis of early apoptosis markers. Next, using the MILLIPLEX® MAP 7-plex Early Phase Apoptosis Signaling kit, seven markers of early apoptosis of JNK, Bad, Bcl-2, Akt, Caspase-9, p53, and Caspase-8 were detected in M-Hela cell lysates. The median fluorescence intensity (MFI) was measured using the Luminex® system. This assay is a quick and convenient alternative to Western blot and immunoprecipitation.
# Multiplex analysis of early apoptosis markers. M-Hela cells were incubated for 24 hours with the test substance. Cells were lysed in MILLIPLEX® MAP Lysis buffer containing protease inhibitors. Twenty micrograms of total protein of each lysate diluted in MILLIPLEX® MAP Assay Buffer 2 was analyzed according to the analysis protocol (the lysate was incubated at 4 °C overnight). The mean fluorescence intensity (MFI) was detected using the Luminex® system, MERCK, USA.
# M-Hela cells [3] = assay: Mitochondrial membrane potential, JC-10 flow cytometry; type: cell-based, human; conditions: IC50 concentration of 14.7 μM
# Procedure: Effects on the mitochondrial membrane potential (Δψm) by lead compounds. In confirmation of data on the course of apoptosis in cells along an external pathway not associated with dysfunctional mitochondria, the ability of the tested compounds to reduce the potential of the mitochondrial membrane (Δψm) in M-Hela culture cells was examined using the example of compound 6g. Studies were performed using flow cytometry methods using JC-10 reagent. In normal cells with a high potential of the mitochondrial membrane, the dye JC-10 forms aggregates (J-aggregate) near the mitochondrial membranes. When the membrane potential due to the stimulation of apoptosis falls, JC-10 is evenly distributed in the cell as a monomer (J-monomer). JC-10 units in normal cells have red fluorescence, and JC-10 monomers are green. The ratio between orange-red and green fluorescence can be used to assess the onset of apoptosis. […] The results obtained indicate that the mechanism of action of the studied compounds is not associated with the induction of apoptosis, which proceeds along the mitochondrial pathway.
# Flow Cytometry Assay. Mitochondrial membrane potential. […] After the cells were rinsed three times and suspended in PBS, the JC-10 fluorescence was observed by flow cytometry (Guava easy Cyte 8HT, Guava Technologies Inc., Hayward, CA, USA).
# M-Hela cells [4] = assay: Induction of apoptotic effects (annexin V-Alexa Fluor 647, Cytell); type: cell-based, human; conditions: 24 hours of treatment, concentration corresponding to the IC50 value (14.7 μM)
# Procedure: Induction of Apoptotic Effects by test compounds. Cell Culture. M-Hela cells at 1 × 10^6 cells/well in a final volume of 2 mL were seeded into six-well plates. After 24 hours of incubation, a solution of the test compound 6g was added to the wells at the concentration studied.
# Cytell Cell Imaging System Assay. M-Hela cells were plated into a 24-well plate (Eppendorf) at a concentration of 1 × 10^6 cells/mL, 500 µL of medium per well, and cultured in a CO2 incubator at 37 °C. Twenty-four hours after seeding the cells into wells the compound was added at a preset dilution, 500 µL to each well. […] Evaluation of apoptotic effects was performed with the help of multifunctional system Cytell Cell Imaging, using Cell Viability BioApp and Automated Imaging BioApp applications. The annexin V-Alexa Fluor 647 apoptosis detection kit, DAPI and propidium iodide purchased from Sigma.
# Statistical analysis. The experiments were repeated three times. The cytometric results were analyzed by the Cytell Cell Imaging multifunctional system using the Cell Viability BioApp and Apoptosis BioApp application. The data in the tables and graphs are given as the mean ± standard error.
SMILES,"solubility in water, in words [1]",IC50 (M-Hela) [µM],ILS (P388 murine leukemia; 18 mg/kg/day i.p.) [%],MST ± SD (P388 murine leukemia; 18 mg/kg/day i.p.) [days],Survival (P388 murine leukemia; 18 mg/kg/day) [%],ILS (P388 murine leukemia; 26 mg/kg/day i.p.) [%],MST ± SD (P388 murine leukemia; 26 mg/kg/day i.p.) [days],Survival (P388 murine leukemia; 26 mg/kg/day) [%],ILS (P388 murine leukemia; 40 mg/kg/day i.p.) [%],MST ± SD (P388 murine leukemia; 40 mg/kg/day i.p.) [days],Survival (P388 murine leukemia; 40 mg/kg/day) [%],ILS (P388 murine leukemia; 55 mg/kg/day i.p.) [%],MST ± SD (P388 murine leukemia; 55 mg/kg/day i.p.) [days],Survival (P388 murine leukemia; 55 mg/kg/day) [%],ILS (P388 murine leukemia; 83 mg/kg/day i.p.) [%],MST ± SD (P388 murine leukemia; 83 mg/kg/day i.p.) [days],Survival (P388 murine leukemia; 83 mg/kg/day) [%],Survivors/Total (P388 murine leukemia; 83 mg/kg/day),"antitumor (anti-leukemic) activity, in words (P388 murine leukemia)",IC50 (Chang liver cell line) [µM],further results
"O=C(Nc1ccccc1)N1CCCC1c1cc2c(cc1O)OCO2 (centres unmarked) [5b, 2-(6-Hydroxybenzo[d][1,3]dioxol-5-yl)-N-phenylpyrrolidine-1-carboxamide]",water-soluble,> 100,177,27.7 ± 10.3,33,165,26.5 ± 10.6,33,160,26.0 ± 10.8,33,80,18.0 ± 8.4,17,0,9.7 ± 0.2,0,0/6,pronounced anti-leukemic activity,> 100,–
"CN(C)CCNC(=O)N1CCCC1c1cc2c(cc1O)OCO2.O=C(O)C(F)(F)F (centres unmarked) [5h, 2-(2-(6-Hydroxybenzo[d][1,3]dioxol-5-yl)pyrrolidine-1-carboxamido)-N,N-dimethylethan-1-aminium 2,2,2-trifluoroacetate]",water-soluble,> 100,276,35.7 ± 10.9,50,95,18.5 ± 8.3,17,447,52.0 ± 8.0,83,300,38.0 ± 9.9,50,100,19.0 ± 8.2,17,1/6,pronounced anti-leukemic activity,> 100,Survivors/Total (P388 murine leukemia; 18 mg/kg/day): 3/6; Survivors/Total (P388 murine leukemia; 26 mg/kg/day): 1/6; Survivors/Total (P388 murine leukemia; 40 mg/kg/day): 5/6; Survivors/Total (P388 murine leukemia; 55 mg/kg/day): 3/6
"O=C(NC1CCCCC1)N1CCCC1c1ccc(Nc2c([N+](=O)[O-])c(Cl)cc3c2no[n+]3[O-])cc1O (centres unmarked) [6g, 6-Chloro-4-((4-(1-(cyclohexylcarbamoyl)pyrrolidin-2-yl)-3-hydroxyphenyl)amino)-5-nitrobenzo[c][1,2,5]oxadiazole 1-oxide]",–,14.7 ± 0.9,–,–,–,–,–,–,–,–,–,–,–,–,–,–,–,–,–,46 ± 2.7,fluorescence intensity of Caspase-8 versus control [2]: two times higher; fluorescence intensity of Caspase-9 versus control [2]: at the control level; melting point: 170 to 175 °C (dec.); decrease in mitochondrial membrane potential (Δψm) (M-Hela cells [3]): No decrease; M-Hela cells in which apoptosis was induced (M-Hela cells [4]): 25%
"CN(C)CCNC(=O)N1CCCC1c1ccc(Nc2c([N+](=O)[O-])c(Cl)cc3c2no[n+]3[O-])cc1O.O=C(O)C(F)(F)F (centres unmarked) [6h, 6-Chloro-4-((4-(1-((2-(dimethylammonio)ethyl)carbamoyl)pyrrolidin-2-yl)-3-hydroxyphenyl)amino)-5-nitrobenzo[c][1,2,5]oxadiazole 1-oxide 2,2,2-trifluoroacetate]",water-soluble,100 ± 8.6,37,13.8 ± 0.6,0,34,13.5 ± 0.5,0,27,12.8 ± 0.7,0,39,–,0,11,11.2 ± 1.6,0,0/6,did not show antitumor properties,> 100,Survivors/Total (P388 murine leukemia; 18 mg/kg/day): 0/6; Survivors/Total (P388 murine leukemia; 26 mg/kg/day): 0/6; Survivors/Total (P388 murine leukemia; 40 mg/kg/day): 0/6; Survivors/Total (P388 murine leukemia; 55 mg/kg/day): 0/6
"Cc1cc(O)c(C2CCCN2C(=O)NCCN(C)C)c(=O)o1.O=C(O)C(F)(F)F (centres unmarked) [7h, 2-(2-(4-Hydroxy-6-methyl-2-oxo-2H-pyran-3-yl)pyrrolidine-1-carboxamido)-N,N-dimethylethan-1-aminium 2,2,2-trifluoroacetate]",water-soluble,> 100,0,11.0 ± 0.6,0,0,10.3 ± 0.2,0,0,10.2 ± 0.2,0,0,10.7 ± 0.2,0,0,10.3 ± 0.2,0,0/6,did not show antitumor properties,> 100,Survivors/Total (P388 murine leukemia; 18 mg/kg/day): 0/6; Survivors/Total (P388 murine leukemia; 26 mg/kg/day): 0/6; Survivors/Total (P388 murine leukemia; 40 mg/kg/day): 0/6; Survivors/Total (P388 murine leukemia; 55 mg/kg/day): 0/6
